# Active and inactive are the calls of the source.
# Experiments:
# [1] = target: T1, Eukaryotic translation initiation factor 2-alpha kinase 3 (Homo sapiens, UniProt Q9NZJ5); assay: Dose response cell-based high-throughput screening assay to measure PERK inhibition. [Related pubchem assays: 1416 ]; format: functional
# [2] = target: T1, Eukaryotic translation initiation factor 2-alpha kinase 3; assay: Counterscreen assay for PERK inhibitors: Dose response cell-based high throughput screening assay to measure inhibition of PERK at 6 hours. [Related pubchem assays: 1522, 1416 ]; format: functional
# [3] = target: Dual specificity protein phosphatase 3 (Homo sapiens, UniProt P51452); assay: VHR1 inhibitor Ki determination, SAR follow-up, biochemical, colorimetric (AID 2004)
# [4] = target: T2, Heat shock factor protein 1 (Mus musculus, UniProt P38532); assay: inhibition of MG132-induced HSE-luciferase signal, confirmation, cell-based, NIH3T3, luminescence, dose retest (AID 2382); format: functional;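 note: NIH3T3 fibroblasts with HSF1-driven luciferase reporter stressed by proteasome inhibitor MG132; luminescence from HSF1-driven luciferase expression after 8 hours of MG132 stress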
# T2 sequence (P38532 whole entry): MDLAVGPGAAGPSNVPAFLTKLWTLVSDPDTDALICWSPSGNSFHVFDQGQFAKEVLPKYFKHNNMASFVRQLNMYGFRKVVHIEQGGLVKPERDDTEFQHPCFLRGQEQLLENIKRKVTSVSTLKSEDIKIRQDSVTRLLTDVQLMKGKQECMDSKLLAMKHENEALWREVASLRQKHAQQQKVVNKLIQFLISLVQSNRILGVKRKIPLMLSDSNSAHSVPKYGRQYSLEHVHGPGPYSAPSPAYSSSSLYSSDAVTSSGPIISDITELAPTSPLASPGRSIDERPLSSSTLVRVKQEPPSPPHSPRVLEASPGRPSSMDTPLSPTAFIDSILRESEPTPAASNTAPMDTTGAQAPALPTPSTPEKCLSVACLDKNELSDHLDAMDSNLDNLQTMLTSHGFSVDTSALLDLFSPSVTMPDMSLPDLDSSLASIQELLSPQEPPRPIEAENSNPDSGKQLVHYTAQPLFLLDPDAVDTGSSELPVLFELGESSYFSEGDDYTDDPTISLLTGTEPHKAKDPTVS
# [5] = target: Lysosomal acid glucosylceramidase (Homo sapiens, UniProt P04062); assay: Dose response cell-based high throughput screening assay to identify enhancers of beta-glucosidase activity. [Related pubchem assays: 784 ]; format: functional
# [6] = polyadenylation inhibitors in yeast reporter, dose response, luminescence, S. cerevisiae SKY197-pL101 (AID 2525); format: functional, cell-based
# [7] = Luminescence Cell-Based Dose Confirmation HTS to Identify Inhibitors of Polyadenylation.; format: functional
# [8] = target: Photoreceptor-specific nuclear receptor (Homo sapiens, UniProt Q9Y5X4); format: functional;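 note: potency for compounds that break the NR2E3 corepressor complex and count as activators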
# [9] = target: Peroxisome proliferator-activated receptor gamma/Nuclear receptor corepressor 2 (Homo sapiens, UniProt P37231+Q9Y618); format: functional
# [10] = target: Melanocortin receptor 4 (Homo sapiens, UniProt P32245); assay: MC4R antagonist potency on cAMP, dose response, cell-based, TR-FRET, biased antagonists (AID 602298); format: functional;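 note: antagonist potency against agonist-stimulated cAMP production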
# Chain of Melanocortin receptor 4 (P32245 whole entry): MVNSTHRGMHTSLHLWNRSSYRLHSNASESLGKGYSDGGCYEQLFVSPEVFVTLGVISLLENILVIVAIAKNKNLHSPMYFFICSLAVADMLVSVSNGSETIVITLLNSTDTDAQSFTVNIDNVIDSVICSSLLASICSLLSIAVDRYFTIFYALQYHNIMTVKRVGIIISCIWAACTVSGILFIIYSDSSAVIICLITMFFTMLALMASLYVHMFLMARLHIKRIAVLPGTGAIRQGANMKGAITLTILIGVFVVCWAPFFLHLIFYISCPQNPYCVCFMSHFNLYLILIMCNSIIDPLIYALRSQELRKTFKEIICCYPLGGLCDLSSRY
# [11] = nonselective inhibitors of cellular cAMP signaling, dose response, counter-screen for MC4R biased antagonist project, cell-based, TR-FRET cAMP detection (AID 602305); format: functional;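 note: U2OS cells stimulated with forskolin near its EC80 as the cAMP inducer; potency is for inhibition of forskolin-stimulated cAMP signaling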
# [12] = target: Cytochrome P450 2C19 (Homo sapiens, UniProt P33261); assay: qHTS Assay for Inhibitors and Substrates of Cytochrome P450 2C19. [Related pubchem assays: 410 ]; format: ADME; details: read-out: Potency
# Chain of Cytochrome P450 2C19 (P33261 whole entry): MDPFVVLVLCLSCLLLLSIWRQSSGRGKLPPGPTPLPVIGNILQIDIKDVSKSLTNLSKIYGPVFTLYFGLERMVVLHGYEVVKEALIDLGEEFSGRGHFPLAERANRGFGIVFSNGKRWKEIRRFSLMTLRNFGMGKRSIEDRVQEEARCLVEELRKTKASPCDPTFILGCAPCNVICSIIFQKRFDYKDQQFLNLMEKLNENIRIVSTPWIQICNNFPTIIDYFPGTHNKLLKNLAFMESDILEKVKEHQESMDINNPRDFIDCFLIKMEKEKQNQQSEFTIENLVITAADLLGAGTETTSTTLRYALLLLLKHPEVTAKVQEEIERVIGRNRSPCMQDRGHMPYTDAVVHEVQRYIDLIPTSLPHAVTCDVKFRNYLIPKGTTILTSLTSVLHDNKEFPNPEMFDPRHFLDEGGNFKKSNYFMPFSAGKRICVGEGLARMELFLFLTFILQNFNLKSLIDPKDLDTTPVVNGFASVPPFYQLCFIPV
# [13] = target: Cytochrome P450 2C9 (Homo sapiens, UniProt P11712); details: Potency
# [14] = target: Protein Rev (Human immunodeficiency virus type 1 group M subtype B (isolate HXB2)(HIV-1), UniProt P04618); assay: inhibitors of Rev binding to RRE RNA, dose response, biochemical, fluorescence polarization, HIV-1 (AID 434976); set-up: species or system Human immunodeficiency virus 1
# Chain of Protein Rev (P04618 whole entry): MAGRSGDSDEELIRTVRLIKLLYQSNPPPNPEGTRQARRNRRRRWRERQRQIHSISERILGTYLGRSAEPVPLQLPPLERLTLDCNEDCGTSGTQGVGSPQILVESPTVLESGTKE
# [15] = target: Female germline-specific tumor suppressor gld-1 (Caenorhabditis elegans, UniProt Q17339); assay: inhibitors of GLD-1 binding to TGE RNA, dose response, biochemical, fluorescence polarization, C. elegans (AID 2802);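 note: fluorescence polarization of labeled TGE RNA bound by purified gld-1 protein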
# Chain of Female germline-specific tumor suppressor gld-1 (Q17339 whole entry, the tested form may be a part): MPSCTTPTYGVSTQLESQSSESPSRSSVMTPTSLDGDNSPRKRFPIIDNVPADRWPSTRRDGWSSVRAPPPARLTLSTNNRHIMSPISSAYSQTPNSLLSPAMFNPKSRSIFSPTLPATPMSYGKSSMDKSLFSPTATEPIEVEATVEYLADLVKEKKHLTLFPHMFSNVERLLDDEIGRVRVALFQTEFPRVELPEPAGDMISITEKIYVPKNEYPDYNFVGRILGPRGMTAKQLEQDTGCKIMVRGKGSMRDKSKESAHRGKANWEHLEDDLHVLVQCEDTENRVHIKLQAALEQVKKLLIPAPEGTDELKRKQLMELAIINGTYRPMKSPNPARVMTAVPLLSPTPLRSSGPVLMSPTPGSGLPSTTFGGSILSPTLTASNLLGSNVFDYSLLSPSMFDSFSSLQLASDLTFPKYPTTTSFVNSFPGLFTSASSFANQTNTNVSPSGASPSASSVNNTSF
# [16] = target: T3, RNA-binding protein pos-1 (Caenorhabditis elegans, UniProt G5EF15); assay: inhibitors of POS-1/mex-3 RNA binding, dose response, biochemical, fluorescence polarization (AID 1964);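 note: purified POS-1 fused to maltose binding protein made in E. coli; potency of compounds blocking POS-1 binding to fluorescent RNA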
# T3 sequence (G5EF15 whole entry): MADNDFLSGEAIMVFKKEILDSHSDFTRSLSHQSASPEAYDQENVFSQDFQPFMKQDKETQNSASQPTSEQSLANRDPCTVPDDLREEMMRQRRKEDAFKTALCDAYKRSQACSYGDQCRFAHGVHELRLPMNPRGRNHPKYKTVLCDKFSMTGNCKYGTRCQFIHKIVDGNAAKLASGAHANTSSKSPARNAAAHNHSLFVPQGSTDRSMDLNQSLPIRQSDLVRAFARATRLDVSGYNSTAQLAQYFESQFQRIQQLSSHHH
# [17] = target: T4, Zinc finger protein mex-5 (Caenorhabditis elegans, UniProt Q9XUB2); assay: MEX-5/TCR-2 RNA interaction inhibitors, dose response, biochemical, C. elegans, fluorescence polarization (AID 1960)
# T4 sequence (Q9XUB2 whole entry): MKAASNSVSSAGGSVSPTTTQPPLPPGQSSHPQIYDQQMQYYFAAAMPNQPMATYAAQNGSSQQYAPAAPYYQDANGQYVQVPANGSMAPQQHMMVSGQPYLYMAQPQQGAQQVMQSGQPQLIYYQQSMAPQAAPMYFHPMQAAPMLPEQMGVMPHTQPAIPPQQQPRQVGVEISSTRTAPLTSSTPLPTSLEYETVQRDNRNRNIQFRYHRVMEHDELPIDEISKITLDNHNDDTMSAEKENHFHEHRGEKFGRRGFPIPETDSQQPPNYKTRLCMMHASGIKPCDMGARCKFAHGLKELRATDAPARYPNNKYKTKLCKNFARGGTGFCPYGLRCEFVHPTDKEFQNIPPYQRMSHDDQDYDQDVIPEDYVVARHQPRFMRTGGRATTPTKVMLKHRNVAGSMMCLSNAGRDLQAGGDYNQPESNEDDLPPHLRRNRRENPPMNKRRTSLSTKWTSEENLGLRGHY
# [18] = test system: Salmon testes DNA; assay: DNA intercalators displacing acridine orange, dose response, artefact control for KSHV LANA DNA-binding inhibitor project, biochemical, fluorescence polarization, cherry-picked samples, set 2 (AID 504727); set-up: species or system Salmonidae
# [19] = target: T5, ORF 73 (Human herpesvirus 8, UniProt O40947); assay: inhibitors of C-LANA binding to LBS DNA, dose response, biochemical, fluorescence polarization, cherry-picked samples (AID 504725); set-up: species or system Human gammaherpesvirus 8;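 note: fluorescence polarization of a labeled DNA duplex reporting LANA DNA binding; potency is for inhibitors that block LANA binding to the DNA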
# T5 sequence (O40947 whole entry): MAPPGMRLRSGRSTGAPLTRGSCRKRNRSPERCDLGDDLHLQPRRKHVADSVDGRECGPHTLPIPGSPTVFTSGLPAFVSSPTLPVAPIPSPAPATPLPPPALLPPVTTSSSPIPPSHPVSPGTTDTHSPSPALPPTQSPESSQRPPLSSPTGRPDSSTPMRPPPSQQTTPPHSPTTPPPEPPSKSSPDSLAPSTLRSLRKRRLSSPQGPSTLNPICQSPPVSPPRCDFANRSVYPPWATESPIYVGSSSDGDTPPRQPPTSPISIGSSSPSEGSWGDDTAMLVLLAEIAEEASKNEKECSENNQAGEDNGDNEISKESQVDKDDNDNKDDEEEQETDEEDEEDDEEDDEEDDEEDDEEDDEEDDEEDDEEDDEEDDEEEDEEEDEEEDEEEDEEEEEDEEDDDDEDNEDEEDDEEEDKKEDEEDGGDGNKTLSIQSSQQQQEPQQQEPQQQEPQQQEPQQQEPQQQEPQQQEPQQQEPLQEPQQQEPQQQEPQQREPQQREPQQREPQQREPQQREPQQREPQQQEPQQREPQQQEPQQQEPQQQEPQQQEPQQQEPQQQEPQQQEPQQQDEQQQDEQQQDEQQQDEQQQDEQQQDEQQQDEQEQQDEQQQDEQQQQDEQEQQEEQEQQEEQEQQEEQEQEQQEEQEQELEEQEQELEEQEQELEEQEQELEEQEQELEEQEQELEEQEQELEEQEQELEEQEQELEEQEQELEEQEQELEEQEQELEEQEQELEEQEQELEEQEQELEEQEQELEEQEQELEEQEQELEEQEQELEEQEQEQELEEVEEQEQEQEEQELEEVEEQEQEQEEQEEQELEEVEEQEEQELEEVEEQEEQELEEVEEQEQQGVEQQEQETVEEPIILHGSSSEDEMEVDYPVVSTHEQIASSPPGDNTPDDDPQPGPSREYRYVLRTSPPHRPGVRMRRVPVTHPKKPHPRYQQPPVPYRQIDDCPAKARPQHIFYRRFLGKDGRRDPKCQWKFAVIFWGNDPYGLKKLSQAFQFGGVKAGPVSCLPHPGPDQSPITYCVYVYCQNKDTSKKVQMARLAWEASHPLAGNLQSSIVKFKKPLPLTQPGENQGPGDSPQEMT
# [20] = target: Metabotropic glutamate receptor 4 (Rattus norvegicus, UniProt P31423); assay: Modulation of the Metabotropic Glutamate Receptor mGluR4: Rat PAM Potency. [Related pubchem assays (depositor defined):AID2437, AID2807]; format: functional
# Chain of Metabotropic glutamate receptor 4 (P31423 whole entry): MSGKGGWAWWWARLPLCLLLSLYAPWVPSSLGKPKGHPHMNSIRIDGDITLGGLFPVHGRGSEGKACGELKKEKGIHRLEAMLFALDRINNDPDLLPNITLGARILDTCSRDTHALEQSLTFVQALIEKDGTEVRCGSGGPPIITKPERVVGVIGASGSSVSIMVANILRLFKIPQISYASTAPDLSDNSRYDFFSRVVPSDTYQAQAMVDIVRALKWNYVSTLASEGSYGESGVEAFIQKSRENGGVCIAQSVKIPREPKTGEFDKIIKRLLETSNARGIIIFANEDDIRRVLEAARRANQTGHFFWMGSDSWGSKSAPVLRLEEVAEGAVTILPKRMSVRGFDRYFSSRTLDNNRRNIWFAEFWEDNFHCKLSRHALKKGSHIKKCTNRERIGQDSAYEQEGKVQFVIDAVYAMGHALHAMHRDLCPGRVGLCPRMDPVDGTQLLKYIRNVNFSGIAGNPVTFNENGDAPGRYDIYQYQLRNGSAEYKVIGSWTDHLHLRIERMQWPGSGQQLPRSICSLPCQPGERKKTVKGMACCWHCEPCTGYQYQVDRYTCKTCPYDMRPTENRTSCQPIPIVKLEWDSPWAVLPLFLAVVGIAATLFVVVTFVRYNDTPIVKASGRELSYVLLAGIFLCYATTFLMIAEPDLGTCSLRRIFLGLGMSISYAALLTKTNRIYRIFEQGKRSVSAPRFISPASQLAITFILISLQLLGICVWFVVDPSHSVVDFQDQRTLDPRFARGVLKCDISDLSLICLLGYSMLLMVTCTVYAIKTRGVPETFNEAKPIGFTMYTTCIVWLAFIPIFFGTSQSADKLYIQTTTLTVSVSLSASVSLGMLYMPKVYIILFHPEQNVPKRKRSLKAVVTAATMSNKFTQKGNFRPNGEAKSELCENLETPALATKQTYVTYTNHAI
# [21] = target: Melanin-concentrating hormone receptor 1 (Homo sapiens, UniProt Q99705); assay: Late-stage fluorescence-based counterscreen for antagonists of the G-protein coupled receptor 7 (GPR7): cell-based dose response assay to identify antagonists of the melanin-concentrating hormone receptor 1 (MCHR1). [Related pubchem assays (depositor defined):AID1861, AID1880, AID1952, AID2148, AID2251, AID2257, AID485339]; format: functional;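 note: stimulated with 30 nM MCH peptide agonist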
# [22] = test system: Trypanosoma cruzi; assay: growth inhibition of intracellular Trypanosoma cruzi, dose response, cell-based, plate reader, dry powder, set 3 (AID 493197); format: functional
# [23] = target: Eukaryotic translation initiation factor 4H (Homo sapiens, UniProt Q15056); assay: human eIF4H binding inhibitors, primary screen, translation initiation inhibitor project, biochemical, uHTS, fluorescence polarization (AID 2012)
# [24] = inhibitors of intracellular T. cruzi replication, confirmation, NIH3T3 host cells, beta-gal luminescence (AID 2044); format: functional, cell-based;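 note: intracellular parasites grown in NIH/3T3 mouse fibroblasts as host cells; luminescent beta-galactosidase reporter signal from transgenic T. cruzi replicating inside host cells; inhibitors lower the luminescence signal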
# [25] = cytotoxicity toward NIH3T3 fibroblasts, dose response, counter-screen, cell-based, ATP luminescence, mouse fibroblasts (AID 2010); format: functional;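 note: cells exposed to compound for about 90 hours before reading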
# [26] = target: Polyadenylate-binding protein 1 (Homo sapiens, UniProt P11940); assay: PABP poly(A) RNA binding inhibitors, primary screen, biochemical, fluorescence polarization, uHTS (AID 2014)
# Chain of Polyadenylate-binding protein 1 (P11940 whole entry): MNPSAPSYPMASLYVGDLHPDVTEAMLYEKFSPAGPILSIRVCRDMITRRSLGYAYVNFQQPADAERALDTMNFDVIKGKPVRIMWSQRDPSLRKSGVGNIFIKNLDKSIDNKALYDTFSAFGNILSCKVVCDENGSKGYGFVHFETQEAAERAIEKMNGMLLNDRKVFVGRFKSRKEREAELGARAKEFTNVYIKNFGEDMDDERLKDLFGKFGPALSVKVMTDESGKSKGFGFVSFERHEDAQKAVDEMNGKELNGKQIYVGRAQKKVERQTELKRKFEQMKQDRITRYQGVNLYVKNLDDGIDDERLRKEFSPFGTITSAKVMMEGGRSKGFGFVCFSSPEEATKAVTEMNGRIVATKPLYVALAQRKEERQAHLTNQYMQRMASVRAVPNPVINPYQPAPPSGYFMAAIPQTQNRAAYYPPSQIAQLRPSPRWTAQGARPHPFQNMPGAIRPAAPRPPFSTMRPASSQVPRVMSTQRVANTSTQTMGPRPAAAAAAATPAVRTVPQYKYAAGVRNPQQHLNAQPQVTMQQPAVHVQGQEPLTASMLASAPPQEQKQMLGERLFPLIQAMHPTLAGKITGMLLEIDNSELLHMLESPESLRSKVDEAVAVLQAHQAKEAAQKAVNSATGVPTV
# [27] = target: Cytochrome P450 3A4 (Homo sapiens, UniProt P08684); details: Potency;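 note: confirmatory qHTS run detecting inhibitors and substrates of CYP3A4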
# Chain of Cytochrome P450 3A4 (P08684 whole entry): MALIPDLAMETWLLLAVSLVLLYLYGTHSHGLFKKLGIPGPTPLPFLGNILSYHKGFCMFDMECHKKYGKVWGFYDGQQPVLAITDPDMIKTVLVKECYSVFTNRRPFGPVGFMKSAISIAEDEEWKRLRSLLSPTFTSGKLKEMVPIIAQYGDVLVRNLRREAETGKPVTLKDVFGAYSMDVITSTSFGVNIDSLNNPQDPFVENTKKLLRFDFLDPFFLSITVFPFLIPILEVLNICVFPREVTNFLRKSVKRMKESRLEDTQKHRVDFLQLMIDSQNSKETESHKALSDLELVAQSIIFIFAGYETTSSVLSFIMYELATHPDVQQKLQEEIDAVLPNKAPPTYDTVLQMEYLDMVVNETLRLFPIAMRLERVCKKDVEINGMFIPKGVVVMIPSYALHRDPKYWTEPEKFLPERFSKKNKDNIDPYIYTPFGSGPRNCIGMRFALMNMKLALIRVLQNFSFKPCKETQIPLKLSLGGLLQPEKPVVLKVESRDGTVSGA
# T1 sequence (Q9NZJ5 whole entry): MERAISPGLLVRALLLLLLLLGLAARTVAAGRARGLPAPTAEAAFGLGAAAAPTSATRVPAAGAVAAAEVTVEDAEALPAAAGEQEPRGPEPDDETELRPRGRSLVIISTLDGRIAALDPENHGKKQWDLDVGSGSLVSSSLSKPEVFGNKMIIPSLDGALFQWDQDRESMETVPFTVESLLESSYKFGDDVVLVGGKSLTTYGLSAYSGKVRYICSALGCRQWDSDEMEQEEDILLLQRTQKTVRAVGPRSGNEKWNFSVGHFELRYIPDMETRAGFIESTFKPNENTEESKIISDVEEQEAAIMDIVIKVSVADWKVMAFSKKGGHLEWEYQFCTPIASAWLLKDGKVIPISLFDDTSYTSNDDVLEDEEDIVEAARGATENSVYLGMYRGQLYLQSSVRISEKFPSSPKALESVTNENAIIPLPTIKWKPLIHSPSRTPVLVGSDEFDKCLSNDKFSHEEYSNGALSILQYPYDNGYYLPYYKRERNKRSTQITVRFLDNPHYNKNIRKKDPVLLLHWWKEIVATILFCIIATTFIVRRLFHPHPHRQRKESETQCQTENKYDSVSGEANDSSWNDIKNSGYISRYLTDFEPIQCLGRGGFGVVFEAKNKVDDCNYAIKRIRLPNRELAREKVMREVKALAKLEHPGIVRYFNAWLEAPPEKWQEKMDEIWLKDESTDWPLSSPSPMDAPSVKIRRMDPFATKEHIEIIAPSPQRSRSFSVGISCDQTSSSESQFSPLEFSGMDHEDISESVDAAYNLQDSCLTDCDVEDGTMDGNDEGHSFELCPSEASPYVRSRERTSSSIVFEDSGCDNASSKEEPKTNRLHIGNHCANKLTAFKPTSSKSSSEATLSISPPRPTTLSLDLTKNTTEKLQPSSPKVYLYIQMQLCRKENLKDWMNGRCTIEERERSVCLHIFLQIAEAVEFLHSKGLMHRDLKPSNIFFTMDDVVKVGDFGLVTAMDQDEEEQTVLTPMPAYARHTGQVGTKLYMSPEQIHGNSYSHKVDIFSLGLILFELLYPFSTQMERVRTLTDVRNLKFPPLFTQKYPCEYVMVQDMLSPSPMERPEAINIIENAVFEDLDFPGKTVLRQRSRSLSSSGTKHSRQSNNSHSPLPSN
smiles,measurement,setting,value
O=C(NNc1ccccc1F)c1ccccc1,EC50,[1],> 55.7 µM (not active)
same,EC50,[2],> 55.7 µM (not active)
Cc1ccc(S(=O)(=O)N2CCN(C(=O)c3cccc(F)c3)CC2)cc1,Ki,[3],39.4 µM (inactive)
same,EC50,[4],> 195 µM (not active)
CCC(C)n1cnc2c(c1=O)c1nc3ccccc3nc1n2Cc1ccc2c(c1)OCO2 (configuration not stated),EC50,[5],> 10 µM (not active)
N#CC1(C#N)C2=C(CCCC2)NC(c2ccccc2)C1(C#N)C#N (configuration not stated),EC50,[6],3.77 µM (active)
same,EC50,[7],7.92 µM (active)
O=C(O)c1cc(-c2ccc3c(c2)OCO3)nc2ccc(Br)cc12,IC50,[8],> 39.8 µM (not active)
same,IC50,[9],1.76 µM (active)
same,IC50,[10],35.7 µM (inactive)
same,IC50,[11],> 64.6 µM (inactive)
CCCC[C@@H]1C[C@H]1C(NP(=O)(c1ccccc1)c1ccccc1)c1ccc(Cl)cc1 (some centres not stated),AC50,[12],10 µM (inconclusive)
same,AC50,[13],15.8 µM (inconclusive)
O=C1CS/C(=C\[N+](=O)[O-])N1c1ccccc1,IC50,[14],3.03 µM (active)
same,IC50,[15],> 59.6 µM (inactive)
same,EC50,[16],> 300 µM (not active)
same,EC50,[17],190 µM (active)
COC(=O)c1cc(N2CCN(C)CC2)nc2ccccc12,AC50,[18],137 µM (active)
same,AC50,[19],59.9 µM (active)
O=C(Nc1ccc(N2C(=O)c3cccc(Cl)c3C2=O)c(Cl)c1)c1ccccn1,EC50,[20],0.03 µM (active)
Cc1ccc(-n2ncc(Cl)c(Oc3ccc(F)cc3F)c2=O)cc1,IC50,[21],17.4 µM (inactive)
CN(Cc1ccccc1)C(=O)C1CCCN(Cc2ccc([N+](=O)[O-])cc2)C1 (configuration not stated),AC50,[22],7.63 µM (active)
COc1ccc(N=C(C)N(C)CCNS(=O)(=O)c2ccc(Cl)cc2)cc1Cl,IC50,[23],> 100 µM (inactive)
same,EC50,[24],0.271 µM (active)
same,EC50,[25],> 60 µM (not active)
same,IC50,[26],5.82 µM (active)
"COc1ccc(-c2coc3c(OC)c(OC)cc(O)c3c2=O)cc1 [ISOTECTORIGENIN, 7-METHYL ETHER]",AC50,[27],39.8 µM (inconclusive)

# Source: ChEMBL document CHEMBL1201862, “PubChem BioAssay data set” (2004)
